Data: the supplement of paper PMC10883282
± gives the standard deviation of the averaged measurements.

How the values were obtained:
Test in all cases: relative viability vs DMSO control (72 h) (fraction); higher = more viable cells
[1] = system: A204
Procedure, shortened: (§1)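 A 5 µM positive control and 0.1% DMSO vehicle ran alongside sarcoma cell lines seeded in 384-well plates to reach 80–90% confluence. Serially diluted compound, 2.5 µl from source plates of 10 mM to 0.0002 mM, was added after 24 h, and the plates were held 72 h at 37 °C, 5% CO2. Relative viability was worked out from ATPLite readings as percent growth averaged over up to triplicate wells. The values were rescaled so that 1 is full and 0 is none.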

[2] = system: G401
Procedure, shortened: as §1

[3] = system: HS729
Procedure, shortened: as §1

[4] = system: KHOS-240S
Procedure, shortened: as §1

[5] = system: MES-SA
Procedure, shortened: as §1

[6] = system: RD
Procedure, shortened: as §1

[7] = system: SK-ES-1
Procedure, shortened: as §1

[8] = system: SK-LMS-1
Procedure, shortened: as §1

[9] = system: SW1353
Procedure, shortened: as §1

[10] = system: SW872
Procedure, shortened: as §1

[11] = system: SW982
Procedure, shortened: as §1

[12] = system: VA-ES-BJ
Procedure, shortened: as §1

COc1cc2nccc(Oc3ccc(NC(=O)NC4CC4)c(Cl)c3)c2cc1C(N)=O [Lenvatinib]
Settings | relative viability
[1], 0.00017 µM | 1 ± 0.045
[1], 0.00051 µM | 1.04 ± 0.068
[1], 0.00152 µM | 1.03 ± 0.08
[1], 0.00457 µM | 1.02 ± 0.023
[1], 0.01372 µM | 0.79 ± 0.05
[1], 0.04115 µM | 0.551 ± 0.04
[1], 0.1235 µM | 0.406 ± 0.046
[1], 0.3704 µM | 0.345 ± 0.0098
[1], 1.111 µM | 0.267 ± 0.038
[1], 3.333 µM | 0.186 ± 0.0089
[1], 10 µM | 0.167 ± 0.018
[2], 0.00017 µM | 0.992 ± 0.036
[2], 0.00051 µM | 0.981 ± 0.017
[2], 0.00152 µM | 1.01 ± 0.018
[2], 0.00457 µM | 0.982 ± 0.025
[2], 0.01372 µM | 1.006 ± 0.0088
[2], 0.04115 µM | 0.974 ± 0.04
[2], 0.1235 µM | 0.919 ± 0.04
[2], 0.3704 µM | 0.848 ± 0.022
[2], 1.111 µM | 0.55 ± 0.021
[2], 3.333 µM | 0.434 ± 0.017
[2], 10 µM | 0.357 ± 0.033
[3], 0.00017 µM | 1.01 ± 0.039
[3], 0.00051 µM | 1.07 ± 0.062
[3], 0.00152 µM | 1.04 ± 0.046
[3], 0.00457 µM | 1.04 ± 0.02
[3], 0.01372 µM | 1.016 ± 0.0094
[3], 0.04115 µM | 1.014 ± 0.0094
[3], 0.1235 µM | 0.945 ± 0.027
[3], 0.3704 µM | 0.833 ± 0.025
[3], 1.111 µM | 0.702 ± 0.028
[3], 3.333 µM | 0.621 ± 0.028
[3], 10 µM | 0.542 ± 0.036
[4], 0.00017 µM | 0.992 ± 0.044
[4], 0.00051 µM | 1 ± 0.03
[4], 0.00152 µM | 1.03 ± 0.022
[4], 0.00457 µM | 1.01 ± 0.04
[4], 0.01372 µM | 0.977 ± 0.041
[4], 0.04115 µM | 0.938 ± 0.044
[4], 0.1235 µM | 0.913 ± 0.031
[4], 0.3704 µM | 0.824 ± 0.0087
[4], 1.111 µM | 0.738 ± 0.037
[4], 3.333 µM | 0.72 ± 0.025
[4], 10 µM | 0.6606 ± 0.0029
[5], 0.00017 µM | 1.01 ± 0.019
[5], 0.00051 µM | 0.958 ± 0.026
[5], 0.00152 µM | 0.971 ± 0.021
[5], 0.00457 µM | 0.9651 ± 0.0046
[5], 0.01372 µM | 0.942 ± 0.021
[5], 0.04115 µM | 0.939 ± 0.02
[5], 0.1235 µM | 0.964 ± 0.051
[5], 0.3704 µM | 0.936 ± 0.022
[5], 1.111 µM | 0.765 ± 0.032
[5], 3.333 µM | 0.597 ± 0.044
[5], 10 µM | 0.454 ± 0.14
[6], 0.00017 µM | 0.985 ± 0.07
[6], 0.00051 µM | 0.993 ± 0.08
[6], 0.00152 µM | 1.04 ± 0.052
[6], 0.00457 µM | 1.04 ± 0.042
[6], 0.01372 µM | 1.02 ± 0.078
[6], 0.04115 µM | 1.02 ± 0.063
[6], 0.1235 µM | 1.04 ± 0.026
[6], 0.3704 µM | 1.047 ± 0.0078
[6], 1.111 µM | 1.04 ± 0.039
[6], 3.333 µM | 1.08 ± 0.027
[6], 10 µM | 0.984 ± 0.062
[7], 0.00017 µM | 0.985 ± 0.02
[7], 0.00051 µM | 1.01 ± 0.05
[7], 0.00152 µM | 0.9845 ± 0.0066
[7], 0.00457 µM | 0.958 ± 0.065
[7], 0.01372 µM | 0.979 ± 0.066
[7], 0.04115 µM | 0.938 ± 0.026
[7], 0.1235 µM | 0.911 ± 0.074
[7], 0.3704 µM | 0.881 ± 0.019
[7], 1.111 µM | 0.791 ± 0.061
[7], 3.333 µM | 0.689 ± 0.025
[7], 10 µM | 0.593 ± 0.032
[8], 0.00017 µM | 1.02 ± 0.035
[8], 0.00051 µM | 1.01 ± 0.037
[8], 0.00152 µM | 1.04 ± 0.023
[8], 0.00457 µM | 1.05 ± 0.029
[8], 0.01372 µM | 0.998 ± 0.059
[8], 0.04115 µM | 1.04 ± 0.05
[8], 0.1235 µM | 0.997 ± 0.046
[8], 0.3704 µM | 1.04 ± 0.032
[8], 1.111 µM | 0.98 ± 0.033
[8], 3.333 µM | 0.953 ± 0.033
[8], 10 µM | 0.972 ± 0.049
[9], 0.00017 µM | 1.01 ± 0.046
[9], 0.00051 µM | 0.999 ± 0.033
[9], 0.00152 µM | 0.986 ± 0.062
[9], 0.00457 µM | 0.982 ± 0.016
[9], 0.01372 µM | 0.931 ± 0.043
[9], 0.04115 µM | 0.943 ± 0.0073
[9], 0.1235 µM | 0.902 ± 0.014
[9], 0.3704 µM | 0.872 ± 0.014
[9], 1.111 µM | 0.859 ± 0.05
[9], 3.333 µM | 0.83 ± 0.029
[9], 10 µM | 0.817 ± 0.032
[10], 0.00017 µM | 1.07 ± 0.051
[10], 0.00051 µM | 1.1 ± 0.02
[10], 0.00152 µM | 1.08 ± 0.05
[10], 0.00457 µM | 1.07 ± 0.024
[10], 0.01372 µM | 1.05 ± 0.025
[10], 0.04115 µM | 1.05 ± 0.054
[10], 0.1235 µM | 1.03 ± 0.036
[10], 0.3704 µM | 1.05 ± 0.047
[10], 1.111 µM | 1.06 ± 0.043
[10], 3.333 µM | 1.05 ± 0.043
[10], 10 µM | 0.953 ± 0.01
[11], 0.00017 µM | 1 ± 0.052
[11], 0.00051 µM | 0.993 ± 0.033
[11], 0.00152 µM | 0.998 ± 0.017
[11], 0.00457 µM | 0.9857 ± 0.0098
[11], 0.01372 µM | 0.989 ± 0.033
[11], 0.04115 µM | 0.99 ± 0.023
[11], 0.1235 µM | 0.982 ± 0.036
[11], 0.3704 µM | 0.968 ± 0.035
[11], 1.111 µM | 0.947 ± 0.034
[11], 3.333 µM | 0.926 ± 0.018
[11], 10 µM | 0.8573 ± 0.0049
[12], 0.00017 µM | 1.07 ± 0.011
[12], 0.00051 µM | 1.06 ± 0.017
[12], 0.00152 µM | 1.08 ± 0.021
[12], 0.00457 µM | 1.1 ± 0.022
[12], 0.01372 µM | 1.12 ± 0.015
[12], 0.04115 µM | 1.11 ± 0.037
[12], 0.1235 µM | 1.13 ± 0.082
[12], 0.3704 µM | 1.13 ± 0.083
[12], 1.111 µM | 1.15 ± 0.043
[12], 3.333 µM | 1.118 ± 0.0078
[12], 10 µM | 1.04 ± 0.068
